Data on two compounds can be found in article PMC9655618 (Cancers, 2022).

Data set [1] in a line: Real-time monitoring of cell proliferation and cytotoxicity (YOYO-1). The settings on record: human, Ishikawa cells (ER+ endometrial cancer cells). How it is done:
(§1) To monitor long-term growth, human ER+ BC (T47-D, MCF-7, MCF-7/BUS), ER+ endometrial (Ishiwaka, High Point, NC, USA), or non-malignant breast (MCF-10A) cells were seeded at 3000–6000 cells per well. […] When indicated, cells were estrogen-deprived in a 10DCC-FBS supplemented medium for one week. […] Cytotoxicity was monitored by using YOYO-1 (Invitrogen, Waltham, MA, USA). Cell proliferation and cytotoxicity were monitored by sequential real-time microphotographs in an IncuCyte HD real-time imaging system (Essen BioScience, Hertfordshire, UK) for 5–10 days. The area under the curve (AUC) was then analyzed to know both the kinetics and dose-effect relationships. […] Next, cells were treated with VEH (0.05% DMSO) or test compounds for 5–10 days. Spheroid size and cell cytotoxicity were recorded with the Incucyte SX5 Live-Cell Analysis Instrument (Sartorius AG, Göttingen, Germany). To calculate the spheroid growth area, confluence measurements were taken considering the largest brightfield object area (µm^2). Cytotoxicity was monitored by using YOYO-1 (Essen Bioscience, Hertfordshire, UK).

For data set [2], the system named is Ishikawa cells. The description is as above. Particulars: for effect on growth of E2-depleted Ishikawa cells: 4-OHTAM 3 μM, compounds 5 µM, 7 days; for IC50: Homo sapiens, Ishikawa, 120 h, read-out: IC50, cell proliferation (AUC). The method, then:
as §1

In data set [3] the test system is T47D cells. Put plainly: Real-time monitoring of 2D cell growth (IncuCyte). In kind it is cell-based. Particulars: Homo sapiens, 120 h, complete estrogenic media (10%FBS), 5 days, AUC.
Data set [4] relates to STAT5 transcriptional activity in Ba/F3 cells. Put plainly: IL3-stimulated STAT5 transcriptional activity, Renilla reporter Ba/F3 cells. Particulars: 4 h pretreatment, mIL3 30 ng/ml 16 h.
In data set [5] the test system is alkaline phosphatase (ALP) activity in Ishikawa cells. Nature of the data set: Alkaline phosphatase assay. It is filed as cell-based, human. Particulars: for effect on E2-induced ALP activity: E2 10 nM, 48 h and 72 h. The method, then:
Human endometrium cells ([…]) were cultured in MEM without phenol red with Earle's Salts culture, which was supplemented with estrogen-deprived 10 DCC-FBS du-ring 5 days. […] Cells were washed with ice-cold PBS, and Alkaline Phosphatase (ALP) activity was measured by using ALP Assay Kit (Abcam, Cambridge, MA, USA). The substrate p-nitrophenyl phosphate (pNPP) and the ALP enzyme were used to detect ALP activity by the analysis of the optical density at 405 nm in the iMark microplate Reader (Bio-Rad, Irvine, CA, USA). […] Protein concentration was quantified with the bicinchoninic acid assay (BCA) kit (Bio-Rad).

Data set [6] deals with ERα-mediated transcription (3xERE-luciferase), T47D-KBluc cells. Put plainly: ER-dependent transcriptional activity, 3xERE-luciferase reporter in T47D-KBluc cells. The settings on record: until dropping to 20% Emax. (A reporter such as luciferase makes a cellular process visible.)
Data set [7] concerns polyubiquitinated protein level in T47D cells. Put plainly: Immunoblotting. In kind it is cell-based, human. The settings on record: from 24 h to 72 h. How it is done:
Then, they were washed with ice-cold PBS supplemented with 1 mM ortovanadate and lysed with RIPA buffer containing protease and phosphatase inhibitors (Thermo Fisher Scientific, Waltham, MA, USA). Equal protein amounts were analyzed by SDS–PAGE, and transferred to nitrocellulose membranes (Thermo Fisher Scientific, Waltham, MA, USA), blocked with Tris-buffered saline/0.05% Tween 20 (TBS-T) containing 5% blotto (Merck, Darmstadt, Germany) or 5% BSA for total and phosphorylated proteins, respectively. Immunoblotting was carried out with mouse anti-ERα F-10 (Santa Cruz Biotech, Santa Cruz, CA, USA), rabbit total anti-STAT5 (Cell Signaling Technology, Leiden, The Netherlands) or mouse anti-polyubiquitin (EMD Millipore, Burlington, MA, USA). After washing, membranes were incubated with horseradish peroxidase-conjugated secondary antibodies (Bio-Rad) for 1 h at room temperature. The β-actin antibody (Santa Cruz Biotech, CA, USA) was used as the loading control. Finally, protein bands were visualized by using Clarity™ Western ECL Substrate (Bio-Rad) in the ChemiDoc XRS system (Bio-Rad) and were analyzed with Quantity One software (Bio-Rad).

Data set [8] deals with STAT3 transcriptional activity in HEK293 cells. Put plainly: IL6-induced STAT3 transcriptional activity, Renilla reporter HEK-293 cells. Particulars: 4 h pretreatment, hIL6 10 ng/ml 16 h.
Data set [9] deals with T47D cells. Nature of the data set: Cell cycle analysis by flow cytometry. The settings on record: 5 μM; 48h. It is filed as cell-based, human. The method, then: For cell cycle studies, unsynchronized T47D cells were seeded at 250,000 cells/well in RPMI (Biowest, Nuaillé, France) 10% FBS medium supplemented with L-glutamine (2 mM), HEPES (10 mM), sodium pyruvate (1 mM) and PEST. […] Cells were then washed in ice-cold PBS and fixed in cold 70% ethanol at −20 °C overnight. Then, the cell pellet was resuspended in FACs buffer (2 mM EDTA, 2% FBS in PBS) and incubated with Ki67-APC antibody (Miltenyi Biotec, Auburn, CA, USA) and DAPI (4′,6-diamidino-2-phenylindole; Sigma-Aldrich) for 20 min at room temperature. Finally, cells were washed and resuspended with FACs Buffer for cell cycle analyses. For apoptosis studies, an Annexin V-FITC Apoptosis Kit (Miltenyi Biotec) was used. Briefly, treated cells were collected in 100 μL of ice-cold AnnexinV binding buffer (10 mM HEPES pH 7.4, 140 mM NaCl, 2.5 mM CaCl2) containing 10 μL of Annexin-V FITC and incubated for 15 min at room temperature. After that, cells were washed with 1 mL binding buffer, sedimented at 300× g 10 min, and resuspended with 500 μL binding buffer containing 5 μL of propidium iodide (PI; 100 μg/mL) prior to acquisition in MACSQuant10 cytometer (Miltenyi Biotec) where 10,000 or 20,000 events were used for cell cycle and apoptosis analysis, respectively.
A general note: In flow cytometry, cells or beads pass a laser one at a time.

As usually defined, the EC50 is the concentration giving half of the maximal effect. The Emax is the size of the effect at its maximum, as opposed to the concentration needed. Turning to `Cc1ccc(C2=CC(O)(c3ccccc3)N(Cc3ccccc3)C2=O)cc1C` (centres unmarked) [compound 32, 1-benzyl-3-(3,4-dimethylphenyl)-5-hydroxy-5-phenyl-1H-pyrrol-2(5H)-one], in [1], the EC50 at 5 days was greater than 10 µM. The “effect on growth of E2-depleted Ishikawa cells” value in [2] is “this effect was not observed”. Also, the IC50 in [2] was determined as 2100 nM; in data set [3] it was 5.34 ± 2.47 µM. Moreover, the “IC50, IL3-stimulated STAT5 transcriptional activity” value in data set [4] was “no activity”. Besides, the “effect on E2-induced ALP activity” value in data set [5] is listed as “inhibited E2-induced ALP activity”. Further, the Emax in [5] (Homo sapiens, Ishikawa, read-out: ALP activity, % of E2-induced maximal activity (Emax)) came to 18%.

Turning to `O=C1C(c2ccc([N+](=O)[O-])cc2)=CC(O)(c2ccccc2)N1Cc1ccccc1` (centres unmarked) [compound 35, 1-benzyl-5-hydroxy-3-(4-nitrophenyl)-5-phenyl-1H-pyrrol-2(5H)-one], in [6], the “effect on E2-induced luciferase activity” value is on record as “reduced E2-induced luciferase activity”. Also, the “effect on polyubiquitinated protein level” value in data set [7] was “significantly increased polyubiquitinated protein level”. The compound further showed a 50% effective concentration (EC50) at 5 days in data set [1] of 10 µM. In addition, in data set [2], the “effect on growth of E2-depleted Ishikawa cells” value is given as “this effect was not observed”. Moreover, the IC50 in [2] came to 3810 nM; in data set [3] it was 6.98 ± 1.15 µM. For the same compound, the “IC50, IL6-induced STAT3 transcriptional activity” value in data set [8] was “inactive”. In addition, the G2/S/M cells in data set [9] turned out to be 16.52%. The “effect on E2-induced ALP activity” value in data set [5] is “inhibited E2-induced ALP activity”. For the same compound, the “ALP activity, % of E2-induced maximal activity (Emax)” value in data set [5] (absence of E2) is on record as “did not affect basal”.
